Experimental data reported in US20240408093A1, “HETEROBIFUNCTIONAL COMPOUNDS AND THEIR USE IN TREATING DISEASE” (HALDA THERAPEUTICS OPCO, INC., priority 2022, published 2024).

Tests used:
GSPT1 = target: T1, GSPT1 (Homo sapiens, UniProt P15170+Q96SW2); assay: GSPT1 HiBiT degradation assay; format: cell-based; conditions: HEK293 LgBiT GSPT1 HiBiT cells, 6 hours
T1 construct: host or cells: HEK293 LgBiT / GSPT1 HiBiT CRISPR knock-in
Outline: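 HEK293 CRISPR knock-in cells expressing LgBiT and GSPT1-HiBiT were seeded at 1000 cells/well and, after 18-24 h, treated with titrated compound plus endurazine (0.5× final) at 37 °C. Luminescence read after 6 h; loss of signal reflects GSPT1 degradation, giving DC50.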

KRAS G12C = KRAS G12C (Homo sapiens, UniProt P01116, G12C); assay: KRAS G12C cellular target engagement assay (SW1573 cells); format: cell-based; design: host or cells: SW1573; conditions: 17 hours, read-out: TE50 (the source's name)
Procedure: SW1573 cells (ATCC CRL-2170) were cultured in RPMI 1640 (Gibco A1049101), supplemented with 10% Heat-inactivated FBS (Gibco Cat. #A38400-01) and 1% Penicillin/Streptomycin (Gibco Cat. #15140-122) in an incubator set at 37° C. and 5% CO2. Cells were seeded at 100,000 cells/ml in 1 ml of complete media in a 24-well, tissue culture-treated plate (Falcon 353226) and incubated overnight. Cells were treated with increasing concentrations of compound and let incubate at 37C and 5% CO2 for 17 hours, after which media was aspirated and cells were lysed in 75 uL RIPA Lysis and Extraction Buffer (Thermo 89901) supplemented with 5 mM MgCl2, Protease and Phosphatase inhibitor cocktail (Thermo 1861281), and Universal Nuclease (Thermo 88700). Plates with RIPA were shaken at 4° C. at 600 rpm for 15 min. After shaking samples, they were collected and spun down at 21,000 g for 15 min at 4° C. Following centrifugation, ˜10 ug of lysate was added to Laemmli Sample Buffer (Bio-Rad 1610747) plus 10% beta-mercaptoethanol, boiled for 15 minutes at 65° C. and loaded onto 12% Mini-PROTEAN TGX™ Precast Protein Gels (Bio-Rad). Protein was transferred to a nitrocellulose membrane (Thermo LC2000) using the iBlot 2 Dry Blotting System (Thermo). After transfer, membranes were washed in 1× TBST (Bioland Scientific LLC TBST0103) 3× for 5 min. Following the wash, blocking buffer (Rockland MB-070) was added for 1 hour at room temperature. Primary antibodies against KRAS (LifeSpan Bio LS-C175665) and actin (Cell Signaling Technology 8457) were added overnight at 4° C. Membranes were then washed again 3× for 5 min in 1× TBST. Secondary antibodies (LI-COR 926-68072 and 926-68073) were added and shaken for 1 hr at room temperature. Membranes were then washed 3× for 5 min in 1×TBST and developed. Membranes were placed on an Odyssey imager (LI-COR).

Sequence of KRAS G12C (P01116 1-188 isoform P01116-2 G12C): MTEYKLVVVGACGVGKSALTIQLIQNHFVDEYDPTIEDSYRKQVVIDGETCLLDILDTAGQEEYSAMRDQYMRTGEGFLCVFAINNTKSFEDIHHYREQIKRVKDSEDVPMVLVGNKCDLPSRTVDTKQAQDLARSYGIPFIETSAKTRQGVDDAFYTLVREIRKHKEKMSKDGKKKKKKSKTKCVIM
T1 sequence (P15170 whole entry): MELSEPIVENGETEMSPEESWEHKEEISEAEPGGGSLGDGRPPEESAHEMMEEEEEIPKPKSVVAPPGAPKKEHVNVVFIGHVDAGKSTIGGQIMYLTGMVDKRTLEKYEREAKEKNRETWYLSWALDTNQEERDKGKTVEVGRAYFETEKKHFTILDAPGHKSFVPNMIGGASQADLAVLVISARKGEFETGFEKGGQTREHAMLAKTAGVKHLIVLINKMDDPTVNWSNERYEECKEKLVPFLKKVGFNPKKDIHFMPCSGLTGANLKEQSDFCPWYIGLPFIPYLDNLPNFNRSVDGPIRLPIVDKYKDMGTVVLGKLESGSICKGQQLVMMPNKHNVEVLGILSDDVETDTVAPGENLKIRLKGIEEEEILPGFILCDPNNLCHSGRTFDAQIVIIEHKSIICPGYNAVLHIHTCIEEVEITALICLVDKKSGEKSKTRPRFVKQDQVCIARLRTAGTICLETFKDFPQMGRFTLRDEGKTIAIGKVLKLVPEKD
T1 sequence (Q96SW2 whole entry): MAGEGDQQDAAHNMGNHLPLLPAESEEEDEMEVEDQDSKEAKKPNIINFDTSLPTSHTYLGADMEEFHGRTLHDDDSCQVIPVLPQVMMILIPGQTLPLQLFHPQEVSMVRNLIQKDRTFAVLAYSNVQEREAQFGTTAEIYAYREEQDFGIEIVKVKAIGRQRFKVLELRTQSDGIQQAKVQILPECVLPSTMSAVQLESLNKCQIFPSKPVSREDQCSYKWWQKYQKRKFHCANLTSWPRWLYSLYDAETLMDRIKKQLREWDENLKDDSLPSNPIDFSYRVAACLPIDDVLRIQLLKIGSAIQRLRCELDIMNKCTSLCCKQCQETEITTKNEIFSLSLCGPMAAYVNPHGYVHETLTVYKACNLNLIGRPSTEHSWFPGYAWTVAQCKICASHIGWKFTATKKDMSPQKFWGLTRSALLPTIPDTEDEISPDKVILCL
T1 sequence (Q16531 whole entry partner): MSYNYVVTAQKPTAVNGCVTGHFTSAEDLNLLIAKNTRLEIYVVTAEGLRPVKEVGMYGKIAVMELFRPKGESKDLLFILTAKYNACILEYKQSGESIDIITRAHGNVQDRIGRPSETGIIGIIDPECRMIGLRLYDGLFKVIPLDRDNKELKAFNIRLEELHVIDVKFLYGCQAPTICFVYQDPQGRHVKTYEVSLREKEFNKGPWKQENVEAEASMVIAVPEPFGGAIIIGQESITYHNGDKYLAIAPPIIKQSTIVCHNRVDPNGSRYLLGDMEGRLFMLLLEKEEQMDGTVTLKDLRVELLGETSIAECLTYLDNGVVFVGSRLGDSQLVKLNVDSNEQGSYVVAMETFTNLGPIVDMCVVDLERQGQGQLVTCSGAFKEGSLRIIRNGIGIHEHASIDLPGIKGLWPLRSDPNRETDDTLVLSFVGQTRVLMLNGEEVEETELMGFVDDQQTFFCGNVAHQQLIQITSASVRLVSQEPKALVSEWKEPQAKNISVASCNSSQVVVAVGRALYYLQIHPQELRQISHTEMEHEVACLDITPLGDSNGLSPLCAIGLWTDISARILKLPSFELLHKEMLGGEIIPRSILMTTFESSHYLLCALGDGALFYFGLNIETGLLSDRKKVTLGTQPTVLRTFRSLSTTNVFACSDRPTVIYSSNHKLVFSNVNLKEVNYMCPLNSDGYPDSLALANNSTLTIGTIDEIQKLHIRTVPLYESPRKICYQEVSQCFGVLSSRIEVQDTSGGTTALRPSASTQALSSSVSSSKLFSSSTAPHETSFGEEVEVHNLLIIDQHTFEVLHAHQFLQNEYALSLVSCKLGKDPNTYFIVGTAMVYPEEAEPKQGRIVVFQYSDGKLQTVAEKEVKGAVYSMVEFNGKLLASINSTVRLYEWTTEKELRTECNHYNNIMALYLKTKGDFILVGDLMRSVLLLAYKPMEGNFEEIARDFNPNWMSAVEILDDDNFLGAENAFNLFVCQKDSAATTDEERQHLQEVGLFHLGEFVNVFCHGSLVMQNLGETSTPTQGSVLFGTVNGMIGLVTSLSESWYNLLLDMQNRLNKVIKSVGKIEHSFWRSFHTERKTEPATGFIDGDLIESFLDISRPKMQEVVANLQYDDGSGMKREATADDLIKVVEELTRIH

Row | SMILES | DC50 (GSPT1) [nM] | EC50 (KRAS G12C) [nM]
1 | C=C(COc1cccc(NC(=O)NCc2ccc3c(c2)CN(C2CCC(=O)NC2=O)C3=O)c1)C(=O)N1CCN(c2nc(OC[C@@H]3CCCN3C)nc3c2CCN(c2cccc4cccc(Cl)c24)C3)C[C@@H]1CC#N (stereo partly shown) [Compound I-49] | 500 to 2500 | < 250
2 | C=C(COc1cc(NC(=O)NCc2ccc3c(c2)CN(C2CCC(=O)NC2=O)C3=O)cc(OC)c1)C(=O)N1CCN(c2nc(OC[C@@H]3CCCN3C)nc3c2CCN(c2cccc4cccc(Cl)c24)C3)C[C@@H]1CC#N (stereo partly shown) [Compound I-50] | > 2500 | 250 to 5000
3 | C=C(COc1ccc(Cl)cc1NC(=O)NCc1ccc2c(c1)CN(C1CCC(=O)NC1=O)C2=O)C(=O)N1CC2(CC(n3nc(-c4ccc5c(cnn5C)c4)c(-c4c(Cl)c(C)cc5[nH]ncc45)c3C)C2)C1 (stereo not shown) [Compound I-76] | 50 to 500 | 250 to 5000
4 | C=C(COc1c(Cl)cccc1NC(=O)NCc1ccc2c(c1)CN(C1CCC(=O)NC1=O)C2=O)C(=O)N1CCN(c2nc(OC[C@@H]3CCCN3C)nc3c2CCN(c2cccc4cccc(Cl)c24)C3)C[C@@H]1CC#N (stereo partly shown) [Compound I-86] | < 50 | 250 to 5000
5 | C=C(COc1cc(Cl)cc(NC(=O)NCc2ccc3c(c2)CN(C2CCC(=O)NC2=O)C3=O)c1)C(=O)N1CCN(c2nc(OC[C@@H]3CCCN3C)nc3c2CCN(c2cccc4cccc(Cl)c24)C3)C[C@@H]1CC#N (stereo partly shown) [Compound I-35] | > 2500 | 250 to 5000
6 | C=C(COc1cc(Cl)cc(NC(=O)NCc2ccc3c(c2F)CN(C2CCC(=O)NC2=O)C3=O)c1)C(=O)N1CCN(c2nc(OC[C@@H]3CCCN3C)nc3c2CCN(c2cccc4cccc(Cl)c24)C3)C[C@@H]1CC#N (stereo partly shown) [Compound I-116] | 500 to 2500 | < 250
7 | C=C(COC(=O)NCc1cc(Cl)cc(NC(=O)NCc2ccc3c(c2)CN(C2CCC(=O)NC2=O)C3=O)c1)C(=O)N1CCN(c2nc(OC[C@@H]3CCCN3C)nc3c2CCN(c2cccc4cccc(Cl)c24)C3)C[C@@H]1CC#N (stereo partly shown) [Compound I-73] | 50 to 500 | < 250
8 | C=C(COc1cc(NC(=O)NCc2ccc3c(c2)CN(C2CCC(=O)NC2=O)C3=O)ccc1OC)C(=O)N1CCN(c2nc(OC[C@@H]3CCCN3C)nc3c2CCN(c2cccc4cccc(Cl)c24)C3)C[C@@H]1CC#N (stereo partly shown) [Compound I-89] | 500 to 2500 | 250 to 5000
9 | C=C(COc1ccc(Cl)cc1NC(=O)NCc1ccc2c(c1)CN(C1CCC(=O)NC1=O)C2=O)C(=O)N1CCN(c2nc(OC[C@@H]3CCCN3C)nc3c2CCN(c2cccc4cccc(Cl)c24)C3)C[C@@H]1CC#N (stereo partly shown) [Compound I-52] | 500 to 2500 | 250 to 5000
10 | C=C(COC(=O)NCCCc1ccc(Cl)cc1NC(=O)NCc1ccc2c(c1)CN(C1CCC(=O)NC1=O)C2=O)C(=O)N1CCN(c2nc(OC[C@@H]3CCCN3C)nc3c2CCN(c2cccc4cccc(Cl)c24)C3)C[C@@H]1CC#N (stereo partly shown) [Compound I-79] | 500 to 2500 | < 250
11 | C=C(COc1c(CNC(=O)Nc2ccc(C)c(Cl)c2)ccc2c1CN(C1CCC(=O)NC1=O)C2=O)C(=O)N1CCN(c2nc(OC[C@@H]3CCCN3C)nc3c2CCN(c2cccc4cccc(Cl)c24)C3)C[C@@H]1CC#N (stereo partly shown) [Compound I-90] | 50 to 500 | < 250
